The text below walks through data of patent US7279497B2, “Benzopyran derivatives substituted with secondary amines including imidazole, their preparation and pharmaceutical compositions containing them” (Korea Research Institute of Chemical Technology, priority 2002, dated 2007).

Series [1] has as its system isolated rat aorta. In words: Vasorelaxation effects on isolated blood vessels (methoxamine induced vasoconstriction). The settings on record: rat aorta constricted with methoxamine (3 μM). How it is done:
The following experiment was conducted to examine whether the compounds of the formula 1 have vasorelaxation effects.
Male Sprague-Dawly rats (350-450 g, obtained from the Experimental Animal Team of the Korea Research Institute of Chemical Technology) were knocked unconscious by hitting the occipital region, sacrificed by cervical dislocation, and underwent thoracotomy. After being quickly removed, the thoracic aorta was deprived of the adipose tissue and cut into aortic rings of 3 mm width. The aorta was lightly rubbed with a modified Krebs Henseleit buffer (Physiological Salt Solution, PSS) soaked cotton club to remove the inner epithelial layer therefrom. While being suspended in an organ bath containing a physiological buffer, the vascular tissue was allowed to equilibrate under a resting tension of 2 g and then, stand for 1 hour at 37° C. for stabilization with a supply of a carbogen consisting of 95% O2-5% CO2.
Thereafter, the vascular tissue was constricted with 10^−5 M phenylephrine and washed several times with PSS and this procedure was repeated again to ensure the stable reactivity of vascular smooth muscle to repetitive constriction/dilatation.
In addition, 3×10^−6 M methoxamine was used to induce an intensive constriction in the vascular smooth muscle. When the vasoconstriction induced by the methoxamine reached and maintained a maximum, test compounds and controls were cumulatively added to the organ baths in concentrations of 1, 3, 10 and 30 μM so as to induce vasodilatation. Cromakalim, BMS-180448, and BMS-191095 were used as the controls.
Following the addition of test compounds, the change in the maximal constriction induced by methoxamine was calculated to plot a concentration-relaxation response curve. Through a linear regression analysis, IC50, the drug concentration at which the vascular tissue is 50% dilated, was obtained for each compound.

Series [2] deals with isolated rat hearts. In words: Cardioprotective activity in isolated ischemic rat heart (Langendorff). As to conditions: 10 μM. How it is done: In order to determine whether the compounds of the chemical formula 1 are protective for ischemic hearts in vitro, experiments determining the anti-ischemic effects of the compounds on isolated rat hearts were conducted as follows.
For all in vitro studies, isolated rat hearts were used according to the published methods after some modification [HJ Ring, Arzneim.-Forsch./Drug Res. 39 (II), 1535 (1989): T. Krzeminski, et al., J. Pharmacological Methods, 25, 95, (1991)]
Male Sprague-Dawley rats weighing 300-450 g were anesthetized with sodium pentobarbital (100 mg/kg, i.p.). The tail vein was injected with heparin (1,000 U/kg) and then the trachea was intubated. While rats were mechanically ventilated with a rodent ventilator (Model 7025, Ugobasile, Italy), their hearts were perfused in situ with oxygenated modified Krebs-Henseleit bicarbonate buffer (described herein) by retrograde aortic cannulation. The hearts were then excised and moved to a Langendorff apparatus (H.S.E., Germany), where they were perfused with oxygenated modified Krebs-Henseleit bicarbonate buffer containing (in mM) NaCl 116, NaHCO3 24.9, KCl 4.7, MgSO4 1.1, KH2PO4 1.17, CaCl2 2.52, glucose 8.32 and pyruvate 2.0 at a constant perfusion pressure (85 mm Hg). A latex balloon filled with solvent (ethanol:water=1:1 (v/v)) and attached to a metal cannula was placed in the left ventricle through pulmonary vein and connected to a Isotec pressure transducer (H.S.E., Germany) for measurement of left ventricular pressure (LVP). The hearts were allowed to equilibrate for 15 min, at which time left ventricular end-diastolic pressure (EDP) was adjusted to 5 mm Hg and this balloon volume was maintained throughout the experiment. Then, baseline contractile function, heart rate (HR), and coronary flow (CF) (extracorporeal electromagnetic flow probe, Narco Bio-System, U.S.A.) were measured. Cardiac contractile function was calculated by subtracting LVEDP from LV peak systolic pressure (LVSP), yielding developed pressure (LVDP). Double product (DP), another important parameter for assessing cardiac performance, was calculated by multiplying HR by LVDP. Throughout the experiment, all these parameters were measured, and calculated before and 10 min after pretreatment with each compound and 30 min after the onset of reperfusion with buffer. Data on reperfusion DP were further expressed as the percentage to pretreatment DP.
After stabilization for 15 min, the hearts were pretreated for 10 min with respective drugs (10 μM, 0.04% DMSO) or vehicle (0.04% DMSO) before onset of global ischemia; test agents were administered directly into the oxygenator of the Langendorff apparatus immediately above the aortic root in a retrograde fashion as solutions in the perfusate. We then rendered the hearts globally ischemic by completely shutting off the perfusate for 30 min. Severity of ischemia was determined as the time to contracture (TTC, min) during global ischemia in which the first 5 mmHg increase in EDP was observed. Then, the hearts were reperfused and, 30 min later, contractile function (LVDP, DP) and cumulative reperfusion lactate dehydrogenase (LDH) release were measured. LDH was measured as a sensitive index for loss of cell viability with a kit supplied by Boerhinger Mannheim based on the technique of Wroblewski and LaDue [F. Wroblewski and J S. La Due, Proc Soc Exp Biol Med 90, 210, (1955)].

The test system of series [3] is ischemic hearts. In words: Cardioprotective activity in ischemic heart model of anesthetized rats. The settings on record: Rat in vivo, 0.3 mg/kg i.v. The protocol:
In order to determine whether the compounds of formula 1 are protective for ischemic hearts, experiments determining the anti-ischemic effects of the compounds on rats were conducted as follows. Male rats (350-450 g, obtained from the Experimental Animal Team of the Korea Research Institute of Chemical Technology) were anesthetized by the intraperitoneal injection of pentobarbital at a dose of 75 mg/kg. After trachetomy, the rats were rendered to respire artificially at a rate of 60/min with a stroke volume of 10 ml/kg. Cannulars were inserted into the fermoral vein and the fermoral artery and used for drug administration and blood pressure measurement, respectively. In the ischemic myocardial injury models, the body temperature has an important influence on the results. To avoid the change in the body temperature, a body temperature measuring probe was inserted into the rectum of each rat and the body temperature was constantly kept at 37° C. with the aid of a homeothermic blanket control unit. Afterwards, during testing, a continuous measurement was made of the mean arterial blood pressures and heart rates from the rats. For the measurement of the blood pressure, a pressure transducer (Statham P23XL, Grass Ins., MA, U.S.A.) was used. The heart rate was measured by a tachometer (ECG/RATE Coupler, Hugo Sachs Electronic, German) identified as Biotachometer. In addition, all of the changes occurring were continuously recorded through the Gould 2000 chart recorder ([…] Linearcorder W R 3310, Hugo Sachs Electronic). The left coronary artery was occluded according to the Selye H. method as follows. The rats underwent a left thoracotomy operation for partial opening of the chest and the right-side chest was pressurized by the middle finger of the left hand to push the heart out. Immediately after the left anterior descending coronary artery hereinafter referred to as (LAD) was carefully stitched using a suture needle with 5-0 silk ligature, the heart was then repositioned in the thoracic cavity while both ends of the ligature were situated outside. The opposite ligature ends were passed through a PE tube (PE100, 2.5 cm) and allowed to stand loose for 20 min for stabilization. Via the cannula inserted into the femoral vein, vehicles or drugs were administered into the rats which were rendered to stand for 30 min in order to sufficiently elicit the efficacies of the drugs. […] From the images input into the computer, the area of the normal blood stream tissue region which appeared blue in a computer monitor and the area which appeared colorless were measured. The percentage of the colorless area to the total area of each slice was calculated and multiplied by the weight of each slice to determine the area at risk (AAR) of each slice. […]

In series [4] the test system is HUVECs (Human umbilical vein endothelial cells). In words: Inhibitory effects on HUVEC tube formation.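 On tube formation: from minus no inhibition up to plus-plus-plus complete inhibition versus vehicle.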 The series is classed as cell-based. How it is done:
The Inhibitory effects of the compounds of the formula 1 on angiogenesis were meassured by the vascular tube formation assay of HUVECs (Human umbilical vein endothelial cells), which is one of the major angiogenic steps.
HUVECs were isolated from human umbilical vein, and cultured. HUVECs within passage 5 from confluent cultures were detached, and plated onto a layer of a bFGF (basic fibroblast growth factor)-reduced and polymerized Matrigel. Matrigel cultures were incubated with or without the compounds of formula 1, and the changes of cell morphology were captured through a phase contrast microscope and photographed.

For series [5], the system named is A549 NSCLC. In words: Inhibition on A549 NSCLC growth in nude mice xenografts. In kind it is in vivo, nude mice (BALB/c nu/nu). The settings on record: for Inhibition (%) of tumor volume: 50 mg/Kg; for Tumor volume: 50 mg/Kg i.p. once daily day 1 to day 20. The protocol: Human tumor xenograft experiments were performed to evaluate whether the compounds of the formula 1 inhibit growth of human tumors implanted in nude mice.
(§1) Nude mice (BALB/c nu/nu, male) were purchased from Charls River Japan, Inc., and housed and treated under SPF (Special Pathogen Free) facilities according to the regulation of NIH (national institutes of health). A549 cells isolated from human non small cell lung cancer (NSCLC) were purchased from ATCC ([…], USA), and maintained as an exponentially growing monolayer in Korea Research Institute of Chemical Technology. Effects of the compounds of present invention on implanted tumor growth were measured by the comparison of tumor sizes, in addition, the changes of body weights and survival % of nude mice were observed.
Nude mice had been adjusted to the laboratory for 2-3 weeks after purchase, and all procedures were performed on male mice of 8 weeks of age, within a weight range of 18-20 g.
A549 tumor xenografts were established in the right flank of mice by subcutaneous injection of cells in 3×3×3 mm^3 size of culture. 24 hours after cell implantation, the administration of the compounds was started and which day is defined as day 1. Nude mice were injected intraperitoneally with the compound of example 23 (50 mg/kg) or vehicle (PBS containing 0.5% tween 80) once daily from day 1 to day 20. Tumor volume (V) was assessed by caliper measurement using the mathematical formula 1, where a was the longest diameter across the tumor and b was the corresponding perpendicular short diameter. Volume (mm^3)=a×b^2/2 [Mathematical Formula 1]
Inhibition (%) was calculated as (1−(VT)n/−(VC)n)×100, where (VT)n and (VC)n were the mean tumor volume of treated and control group at n days after administration of the compound. Each group consisted of 8 mice, and statistical significance was represented as student-T test (* p<0.05).

Series [6] can be described thus: Changes of body weight in nude mice implanted A549. The series is classed as in vivo, nude mice (BALB/c nu/nu). The settings on record: 50 mg/Kg.
Text: as §1
The effects of the compounds of the formula 1 on changes of body weights were determined. Body weights of nude mice were measured using AND balance at 5 day intervals starting from the date of administration of compounds, and represented as a mean value of treated group […], respectively.

The test system of series [7] is A549 implanted mice. In words: Survival % in A549 implanted mice. As to conditions: for Survival %: 50 mg/Kg. The series is classed as in vivo.
Text: as §1
Survival percents were represented using following mathematical formula 2, where N0 is the number of mice at the first day of administration, and Nn is the number of mice at n days after administration. Survival %=Nn/N0×100 [Mathematical formula 2]

Series [8] deals with SPF SD rats. The settings on record: rat, in vivo, po.

Marks after values point to notes of the source that are not given here.

One may read the IC50 as the midpoint of a concentration-inhibition curve. Higher therefore signals weaker potency in that assay. With `CC1(C)Oc2ccc(C#N)cc2[C@@H](N=C(NC#N)Nc2ccc(Cl)cc2)[C@@H]1O` [BMS-180448, reference compound], in series [1], half-maximal inhibition (IC50) was put at 1.38 µM. The “LDVP × HR (%)” value in series [2] (30 min reperfusion, % of pretreatment DP) is given as 67.6%. The “TTC (time to contracture)” value in series [2] (global ischemia) worked out at 27.8 min. For the same compound, in series [2] (reperfusion), the EDP was found to be 16.5 MmHg and the “LDH (reperfusion release)” value came to 17.2 U/g. In series [3], the “AAR/LV (%)” value stood at 38.8% and the “IZ/AAR (%)” value stood at 39.1%.

Take `CC1(C)Oc2ccc(C#N)cc2C(N(Cc2ncc[nH]2)c2ccc(Cl)cc2)[C@H]1O` (stereo partly shown) [BMS-191095]: in series [1], the IC50 was 2.14 µM.

In the case of `CC1(C)Oc2ccc(C#N)cc2C(N2CCCC2=O)C1O` (stereo not shown) [Cromakalim], it took 0.067 µM to reach half-maximal inhibition in series [1] (IC50).

With `COC(OC)[C@]1(C)Oc2ccc(N)cc2[C@H](N(Cc2ncc[nH]2)c2ccc(Cl)cc2)[C@H]1O` [Example 23, (2R,3R,4S)-6-amino-3,4-dihydro-2-dimethoxymethyl-3-hydroxy-2-methyl-4-[N-(4-chlorophenyl)-N-(1H-imidazol-2-ylmethyl)amino]-2H-1-benzopyran], the “inhibitory effect on HUVEC tube formation” value in series [4] (50 uM) is reported as “didn't show any tube like structures”. For the same compound, the Tube formation entry in series [4] (50 μM) was “+++”. Also, the “Inhibition (%) of tumor volume” value in series [5] (25 days) is listed as “(40%)”; in series [5] (35 days), “(39%)”; in series [5] (45 days) it was “(50%)”; in series [5] (65 days), “(52%)”. In addition, the Tumor volume in series [5] (25 days) is given as 92.2 mm^3; in series [5] (35 days) it was 186.8 mm^3; in series [5] (45 days), 244.3* mm^3; in series [5] (65 days), 494.8* mm^3. Also, in series [5] (from 45 days to 61 days after implantation), the “Inhibition of A549 NSCLC growth” value is recorded as 50-52%. Further, in series [6], the “retardation or loss of body weight gain” value is on record as “not observed”. Moreover, the Body weight came out at 22.30 g in series [6] (1 day), 25.42 g in series [6] (14 days), 26.17 g in series [6] (25 days) and 27.10 g in series [6] (35 days). Also, the Survival % in series [7] (1 day), in series [7] (5 days), in series [7] (15 days) and in series [7] (20 days) was 100% throughout. The same compound returned a survival rate in series [7] (table 6) of 100%. Also, the “clinical symptoms, body weight and mortality” value in series [8] is “no significant changes”.
